The term pKd denotes −log10 of the Kd, conventionally taken in molar units. Read a high pKd as a low Kd. What is called Papp A→B is how fast a substance crosses the layer from the apical side. A low value points to poor permeation. Broadly, the Papp B→A is the apparent permeability from the basolateral to the apical side of a cell layer. One may read the inhibition as the relative decrease from the control value, in per cent. High values mean strong suppression, low ones little suppression.

This is an account of results in patent US20250312469A1 (CANGET BIOTEKPHARMA, priority 2024, published 2025).

One data set deals with T1, UbE2T (Homo sapiens, UniProt Q9NPD8).
T1 sequence (Q9NPD8 1-197): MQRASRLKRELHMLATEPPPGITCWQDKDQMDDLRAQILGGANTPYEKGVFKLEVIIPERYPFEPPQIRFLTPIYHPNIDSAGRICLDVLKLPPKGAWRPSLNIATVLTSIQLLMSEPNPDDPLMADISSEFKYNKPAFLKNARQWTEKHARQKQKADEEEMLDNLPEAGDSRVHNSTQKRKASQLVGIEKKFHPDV
The data set can be described thus: ITC, Flag-UbE2T. It is filed as binding. The arrangement: host or cells: HEK293T. From the text:
Purification of Flag-tagged DDX5 (Flag-DDX5), USP2a (Flag-USP2), UbE2T (Flag-(bE2T) and topoisomerase 1 (Top1) (Flag-Top1) proteins: Flag-DDX5, Flag-USP2, Flag-UbE2T and Flag-Topl proteins were purified from the protein expression vector-transfected HEK293T cells by using the FLAG® M Purification Kit for mammalian expression systems (CELLMM2-IKT, Sigma). Briefly, sub-confluent populations of HEK293T cells were transfected with expression vectors for Flag-DDX5, Flag-USP2, Flag-UbE2T and Flag-Top1 (OriGene) using Lipofectamine 2000 (Invitrogen) as per the manufacturer's instructions. After 72h of transfection, cells were lysed in Cell Lytic M lysis reagent (Sigma Cat #C2978) containing a protease inhibitor cocktail. […]
Replacement of the Tris-HCl buffer with the PBS buffer for purified proteins for drug-protein binding analyses using isothermal titration calorimetry (ITC): After the purified proteins were eluted from the agarose resin with 3×flag peptide, the same purified protein samples from different batches were combined. […] The PBS-resuspended protein samples were recovered from the reservoir and the protein concentrations were determined using the nano-drop reader (Bio-Rad) and BCA Protein Assay (Thermo/Pierce) for double-making sure the concentration. […]
For orientation: ITC needs no label: the signal is the heat of the interaction.

Another data set has as its system P-gp. The data set can be described thus: in vitro. The note with it: human.
Another data set deals with CYP3A. The data set can be described thus: in vitro. The protocol:
(§1) The CYP reaction was initiated by adding a CYP probe substrate and incubating at 37° C. for 10-20 minutes, depending on the individual CYP isoform. The reaction was terminated with the addition of 400 μL ice-cold acetonitrile (ACN). […] Positive controls were performed in parallel using a known inhibitor of the individual CYP isoform. […] The samples were then transferred to 96-well plates and analyzed by LC-MS/MS (Appendix 1).

Another data set has as its target T2, CYP2B6 (Homo sapiens, UniProt P20813).
T2 sequence (P20813 1-491): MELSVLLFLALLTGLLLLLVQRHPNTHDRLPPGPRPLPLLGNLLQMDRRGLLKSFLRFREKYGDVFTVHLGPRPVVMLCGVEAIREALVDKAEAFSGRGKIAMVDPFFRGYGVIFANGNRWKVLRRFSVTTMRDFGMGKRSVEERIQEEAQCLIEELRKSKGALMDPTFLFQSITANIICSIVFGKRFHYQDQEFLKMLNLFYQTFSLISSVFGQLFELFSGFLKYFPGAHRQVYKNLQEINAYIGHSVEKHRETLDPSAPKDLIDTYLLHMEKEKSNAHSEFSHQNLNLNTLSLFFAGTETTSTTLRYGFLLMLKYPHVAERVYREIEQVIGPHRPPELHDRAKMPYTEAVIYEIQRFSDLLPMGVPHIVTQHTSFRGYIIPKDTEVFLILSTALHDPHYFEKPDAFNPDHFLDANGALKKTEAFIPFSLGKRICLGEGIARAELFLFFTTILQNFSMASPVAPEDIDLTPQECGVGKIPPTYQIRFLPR
The data set can be described thus: in vitro. The protocol: as §1

A further data set concerns the target CYP1A2 (Homo sapiens, UniProt P05177). Description: in vitro. Here is the method:
as §1

pKd: −log10 of the molar value.

Sequence of CYP1A2 (P05177 whole entry): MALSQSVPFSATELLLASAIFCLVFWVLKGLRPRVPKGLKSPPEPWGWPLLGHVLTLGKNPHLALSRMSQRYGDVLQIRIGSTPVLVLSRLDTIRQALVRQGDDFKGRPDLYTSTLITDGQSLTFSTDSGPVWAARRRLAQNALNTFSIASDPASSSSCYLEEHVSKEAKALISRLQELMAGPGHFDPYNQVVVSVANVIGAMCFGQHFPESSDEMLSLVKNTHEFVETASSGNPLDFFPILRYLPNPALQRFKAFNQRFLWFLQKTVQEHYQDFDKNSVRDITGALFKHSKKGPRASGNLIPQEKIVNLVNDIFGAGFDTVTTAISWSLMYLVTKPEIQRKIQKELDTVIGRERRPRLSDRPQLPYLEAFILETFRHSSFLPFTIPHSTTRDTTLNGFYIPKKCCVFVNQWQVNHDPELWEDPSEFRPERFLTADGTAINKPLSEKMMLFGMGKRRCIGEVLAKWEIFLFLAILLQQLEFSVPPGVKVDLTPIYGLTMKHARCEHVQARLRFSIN
Procedure for P-gp: Cell monolayers were grown to confluence on collagen-coated, microporous, polycarbonate membranes in 12-well Costar Transwell R plates. […] The permeability assay buffer was Hanks' balanced salt solution (HBSS) containing 10 mM HEPES and 15 mM glucose at a pH of 7.4. The buffer in the receiver chamber also contained 1% bovine serum albumin. […] Cells were first pre-incubated for 30 minutes with HBSS containing+/−1 μM valspodar. Cell monolayers were dosed on the apical side (A-to-B) or basolateral side (B-to-A) and incubated at 37° C. with 5% CO2 in a humidified incubator. Samples were taken from the donor and receiver chambers at 120 minutes. Each determination was performed in duplicate. The flux of co-dosed lucifer yellow was also measured for each monolayer to ensure no damage was inflicted to the cell monolayers during the flux period. All samples were assayed by LC-MS/MS using electrospray ionization. […] The apparent permeability (Papp) and percent recovery were calculated as follows:
Where, dCr/dt is the slope of the cumulative concentration in the receiver compartment versus time in μM s^−1;Vr is the volume of the receiver compartment in. cm^3; Vd is the volume of the donor compartment in cm^3; A is the area of the insert (1.13 cm^2 for 12-well Transwell); CA is the average of the nominal dosing concentration and the measured 120 minute donor concentration in μM; CN is the nominal concentration of the dosing solution in μM; Cr^Final is the cumulative receiver concentration in μM at the end of the incubation period; and Cd^Final is the concentration of the donor in μM at the end of the incubation period.
Efflux ratio (ER) is defined as Papp (B-to-A)/Papp (A-to-B)

Consider `CCC1(O)C(=O)OCc2c1cc1n(c2=O)Cc2cc3cc4c(cc3nc2-1)OCO4` (centres unmarked) [FL118], for which the pKd at UbE2T was 6.80. Besides, the Papp A→B at 120 min, 1 μM in the data set with P-gp (Caco-2, pH 7.4, Papp AVG, Caco-2, A-to-B, without valspodar) amounted to 69.7 nm/s; in the data set on P-gp (Caco-2, pH 7.4, Papp R1, Caco-2, A-to-B, without valspodar), 72.7 nm/s; in the data set with P-gp (Caco-2, pH 7.4, Papp R2, Caco-2, A-to-B, without valspodar), 66.7 nm/s. Besides, the apparent permeability from basolateral to apical (Papp B→A) at 120 min, 1 μM with P-gp (Caco-2, pH 7.4, Papp AVG, Caco-2, B-to-A, without valspodar) amounted to 81 nm/s; with P-gp (Caco-2, pH 7.4, Papp R1, Caco-2, B-to-A, without valspodar), 73.5 nm/s; with P-gp (Caco-2, pH 7.4, Papp R2, Caco-2, B-to-A, without valspodar) it was 88.6 nm/s. Besides, the recovery at 120 min, 1 µM worked out at 43% in the data set with P-gp (Caco-2, pH 7.4, Recovery (%), Caco-2, A-to-B, without valspodar); 48% with P-gp (Caco-2, pH 7.4, Recovery (%), Caco-2, B-to-A, without valspodar); 46% in the data set with P-gp (Caco-2, pH 7.4, with valspodar 1 µM, Recovery (%), Caco-2, A-to-B, + 1 μM Valspodar); 48% in the data set with P-gp (Caco-2, pH 7.4, with valspodar 1 µM, Recovery (%), Caco-2, B-to-A, + 1 μM Valspodar). In the data set with CYP3A (1 μM, testosterone probe), the CYP3A inhibition result is on record as “does not inhibit these 3 CYP isoforms”. Also, the inhibition at 1 µM worked out at 0% in the data set on CYP3A (human, microsomes, pH 7.4); 0% against CYP2B6 (human, microsomes, pH 7.4); 0.1% against CYP1A2 (human, microsomes, pH 7.4). Moreover, the CYP2B6 inhibition result at CYP2B6 (1 μM) was “does not inhibit these 3 CYP isoforms”. Moreover, on CYP1A2 (1 μM), the CYP1A2 inhibition result was “does not inhibit these 3 CYP isoforms”.
